Experimental findings from publication PMC3070160 (Biochemistry, 2010) are described below.

Usually Kd stands for the free concentration of one partner at which half of the binding sites on the other are occupied at equilibrium, for simple one-to-one binding. High values mean a looser complex, low ones a tighter complex.

What all share (assay type): binding
The target in assay [1] is T1, yCBS (yeast cystathionine β-synthase) (Saccharomyces cerevisiae, UniProt P32582).
T1 sequence (P32582 1-507): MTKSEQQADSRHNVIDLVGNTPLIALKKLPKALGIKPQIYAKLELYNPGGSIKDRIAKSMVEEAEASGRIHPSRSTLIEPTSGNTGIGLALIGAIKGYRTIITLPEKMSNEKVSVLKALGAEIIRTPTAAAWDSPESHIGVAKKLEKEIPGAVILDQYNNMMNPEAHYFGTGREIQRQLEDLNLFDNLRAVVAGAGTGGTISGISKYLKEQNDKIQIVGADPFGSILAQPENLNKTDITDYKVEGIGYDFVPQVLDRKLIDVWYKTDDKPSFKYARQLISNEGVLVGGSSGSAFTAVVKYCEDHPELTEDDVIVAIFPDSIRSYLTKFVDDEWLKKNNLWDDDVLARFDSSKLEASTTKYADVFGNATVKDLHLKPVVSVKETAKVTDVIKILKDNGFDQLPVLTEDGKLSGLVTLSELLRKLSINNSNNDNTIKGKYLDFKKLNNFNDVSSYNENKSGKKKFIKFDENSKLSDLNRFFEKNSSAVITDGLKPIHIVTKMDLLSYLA
As to the kind of experiment: stopped-flow, aminoacrylate formation at […] nm, hyperbolic fit of kobs.

Assay [2] concerns the target T1, yCBS (yeast cystathionine β-synthase). The assay is described as follows: UV-visible spectrum of enzyme as isolated. The following applies: internal aldimine with Lys53; covalent.
The target is the same in assay [3]. As to the kind of experiment: double-mixing stopped-flow, […] nm decay, koff/kon.

In assay [1], `N[C@@H](CO)C(=O)O` [L-serine] came in with a Kd of 14.4 ± 1.7 mM.

For `Cc1ncc(COP(=O)(O)O)c(C=O)c1O` [PLP], in assay [2], the “UV-visible spectrum of enzyme as isolated” value was “protonated Schiff base (internal aldimine) between Lys53 in the active site and the PLP”.

The molecule `N[C@@H](CCS)C(=O)O` [L-homocysteine] returned a dissociation constant Kd in assay [3] of 370 ± 20 µM.
